Experiment [1] concerns MCF7. Briefly: Cytotoxicity against human ER-positive MCF7 cells assessed as cell viability after 72 hrs by MTT assay. It counts as functional, cell-based. On the technique in general: Formazan colour is commonly taken as a measure of viable cells.
Experiment [2] deals with MDA-MB-231. Briefly: Cytotoxicity against human ER-negative MDA-MB-231 cells assessed as cell viability after 72 hrs by MTT assay. It counts as functional, cell-based. To be noted: for IC50: MDA-MB-231, 72 h.
Experiment [3] has as its system MDA-MB-231. As to the kind of experiment: Antimigratory activity in human ER-negative MDA-MB-231 cells assessed as cell migration level at 1 uM after 24 hrs by scratch assay. Type of experiment: functional.
Experiment [4] concerns MCF7. As to the kind of experiment: Inhibition of c-Myc expression in human ER-positive MCF7 cells at 10 and 25 uM after 24 hrs by western blotting. Type of experiment: functional, cell-based. For orientation: Immunoblotting shows a protein as a band on a membrane.
The subject of experiment [5] is MDA-MB-231. Briefly: Inhibition of MMP9 expression in human ER-negative MDA-MB-231 cells at 10 and 25 uM after 24 hrs by western blotting. Type of experiment: functional, cell-based.
The subject of experiment [6] is MCF7. As to the kind of experiment: Inhibition of MMP9 expression in human ER-positive MCF7 cells at 10 and 25 uM after 24 hrs by western blotting. Type of experiment: functional, cell-based.
Experiment [7] relates to MCF7. As to the kind of experiment: Inhibition of caveolin-1 expression in human ER-positive MCF7 cells at 10 and 25 uM after 24 hrs by western blotting. Type of experiment: functional, cell-based.
Experiment [8] has as its system MDA-MB-231. As to the kind of experiment: Inhibition of caveolin-1 expression in human ER-negative MDA-MB-231 cells at 10 and 25 uM after 24 hrs by western blotting. Type of experiment: functional, cell-based.
Experiment [9] relates to MDA-MB-231. Briefly: Inhibition of c-Myc expression in human ER-negative MDA-MB-231 cells at 10 and 25 uM after 24 hrs by western blotting. Type of experiment: functional, cell-based.
Experiment [10] concerns MCF7. Briefly: Inhibition of caveolin-1 expression in human ER-positive MCF7 cells after 24 hrs by western blotting. It counts as functional, cell-based.
For experiment [11], the system named is MCF7. Briefly: Inhibition of c-Myc expression in human ER-positive MCF7 cells after 24 hrs by western blotting. Type of experiment: functional, cell-based.
For experiment [12], the system named is MDA-MB-231. As to the kind of experiment: Inhibition of MMP9 expression in human ER-negative MDA-MB-231 cells after 24 hrs by western blotting. It counts as functional, cell-based.
Experiment [13] concerns MDA-MB-231. Briefly: Antimigratory activity in human ER-negative MDA-MB-231 cells assessed as cell migration level at 0.5 uM after 24 hrs by scratch assay. Type of experiment: functional.
The test system of experiment [14] is MCF7. As to the kind of experiment: Inhibition of MMP9 expression in human ER-positive MCF7 cells after 24 hrs by western blotting. Type of experiment: functional, cell-based.
The test system of experiment [15] is MDA-MB-231. As to the kind of experiment: Inhibition of cell invasion in human ER-negative MDA-MB-231 cells after 24 hrs by Boyden chamber transwell invasion assay. Type of experiment: functional, cell-based.
Experiment [16] has as its system MDA-MB-231. Briefly: Inhibition of c-Myc expression in human ER-negative MDA-MB-231 cells after 24 hrs by western blotting. Type of experiment: functional, cell-based.
For experiment [17], the system named is MDA-MB-231. Briefly: Inhibition of caveolin-1 expression in human ER-negative MDA-MB-231 cells after 24 hrs by western blotting. It counts as functional, cell-based.
Setting [18] is: Homo sapiens, MCF7, 72 h, read-out: IC50.

Each structure is given as a SMILES string. Activity calls are given as the source filed them. No cut-off for these calls is given here.

Turning to `COc1ccc(/C(=C(/CCNC(=O)N2CCCC2)c2ccccc2)c2ccccc2)cc1`, the IC50 in [1] (setting [18]) and in experiment [2] was more than 50 µM each time.
As to `COc1ccc(/C(=C(/CCNC(=O)N2CCOCC2)c2ccccc2)c2ccccc2)cc1`, the IC50 (usually the midpoint of a concentration-inhibition curve) is more than 50 µM in experiment [1] (setting [18]) and 42.8 µM in experiment [2].
Taken in the same sequence, the figures for `COc1ccc(/C(=C(/CCCl)c2ccccc2)c2ccccc2)cc1` were more than 50 µM and more than 50 µM.
Taken in the same sequence, the figures for `COc1ccc(/C(=C(/CCNC(=O)C(=O)N2CCCC2)c2ccccc2)c2ccccc2)cc1` were more than 50 µM and 48.6 µM.
Taken in the same sequence, the figures for `CCN(CC)C(=O)NCC/C(=C(\c1ccccc1)c1ccc(OC)cc1)c1ccccc1` were more than 50 µM and 40.7 µM.
`COc1ccc(/C(=C(/CCNC(=O)C(=O)NC2CCCCC2)c2ccccc2)c2ccccc2)cc1`: the result in [3] was inactive. Besides, the IC50 in experiment [1] (setting [18]) was 12.1 µM; in experiment [2], 12.2 µM. The inhibition result in [4], in experiment [5], in experiment [6] and in [9] was “Active” in each case. In addition, the inhibition result in [7] and in experiment [8] was “inactive” each time.
On to `COc1ccc(/C(=C(/CCNC(=O)Oc2ccccc2)c2ccccc2)c2ccccc2)cc1`, for which, in [1] (mcf7), the IC50 result is on record as “Not Active”. Further, the outcome in experiment [2] was inactive.
`OCCOc1ccc(/C(=C(/CCCl)c2ccccc2)c2ccccc2)cc1` [OSPEMIFENE]: the result in [3] was inactive. The IC50 in [1] (setting [18]) and in experiment [2] was more than 50 µM each time.
With `COc1ccc(/C(=C(/CCN)c2ccccc2)c2ccccc2)cc1`, the Activity is listed as 25% in experiment [3] and 60% in [13]. The inhibition entry in [10], in experiment [11], in experiment [12], in experiment [14], in [15] and in experiment [16] was “Dose-dependent effect” throughout. For the same molecule, the inhibition entry in [17] is “Dose-dependent effect”.
Consider `COc1ccc(/C(=C(/CCNC(=O)C(=O)NCc2ccccc2)c2ccccc2)c2ccccc2)cc1`, for which, in experiment [3], the result was inactive. Besides, the IC50 in [1] (setting [18]) was more than 50 µM; in experiment [2], 11.5 µM. The inhibition result in [4], in experiment [5], in experiment [6] and in experiment [9] was “Active” each time. For the same molecule, the inhibition entry in [7] and in experiment [8] was “inactive” throughout.
As to `COc1ccc(/C(=C(/CCNC(=O)C(=O)N2CCOCC2)c2ccccc2)c2ccccc2)cc1`, the values for the IC50 in [1] (setting [18]) and in experiment [2] were 43.4 µM and 20 µM, respectively.
On the same counts, the results for `COc1ccc(/C(=C(/CCNC(=O)NCc2ccccc2)c2ccccc2)c2ccccc2)cc1` are more than 50 µM and more than 50 µM.
Taken in the same sequence, the figures for `COc1ccc(/C(=C(/CCNC(=O)N2CCCCC2)c2ccccc2)c2ccccc2)cc1` were more than 50 µM and more than 50 µM.
For the molecule `COc1ccc(/C(=C(/CCNC(=O)NC2CCCCC2)c2ccccc2)c2ccccc2)cc1`, the IC50 in [1] (setting [18]) was 37.2 µM; in [2], more than 50 µM.
As for `COc1ccc(/C(=C(/CCN=[N+]=[N-])c2ccccc2)c2ccccc2)cc1`, the IC50 result in experiment [1] (mcf7) is reported as “Not Active”. For the same molecule, the result in experiment [2] was inactive.
Turning to `COc1ccc(/C(=C(/CCNC(=O)C(=O)N2CCCCC2)c2ccccc2)c2ccccc2)cc1`, the IC50 in experiment [1] (setting [18]) and in experiment [2] was more than 50 µM in each case.
Take `CCOC(=O)C(=O)NCC/C(=C(\c1ccccc1)c1ccc(OC)cc1)c1ccccc1`: the IC50 in experiment [1] (setting [18]) and in [2] was more than 50 µM in each case.

For the origin of these results see ChEMBL document CHEMBL3785016, “Design, synthesis, and anti-breast cancer evaluation of new triarylethylene analogs bearing short alkyl- and polar amino-/amido-ethyl chains” (Bioorg Med Chem Lett, 2016).
